These results are taken from patent publication US8796304B2, “Tricyclic imidazole compounds as PDE10 inhibitors” (H. Lundbeck A/S, priority 2010, dated 2014).

The term IC50 denotes the midpoint of a concentration-inhibition curve. For orientation: inhibition means the drop in the measured response relative to a control, in per cent. A lower inhibition goes with little suppression. The ED50 is the dose at which the effect has come halfway, by size or by number of responders.

One series addresses PDE10A enzyme (Homo sapiens (Human), UniProt Q9Y233). Description: PDE10A inhibition assay (3H-cAMP, SPA beads). Format: biochemical. As to conditions: 10 nM 3H-cAMP, 1 hour incubation; read-out: PDE10 IC50. How it is done:
PDE10A can be expressed as full-length proteins or as truncated proteins, as long as they express the catalytic domain, PDE10A can be prepared in different cell types, for example insect cells or E. coli. […] Expression in coil is performed according to standard protocols. Briefly, the expression plasmids are transformed into the BL21(DE3) E. coli strain, and 50 mL cultures inoculated with the cells allowed to grow to an OD600 of 0.4-0.6 before protein expression is induced with 0.5 mM IPTG. Following induction, the cells are incubated overnight at room temperature, after which the cells are collected by centrifugation. Cells expressing PDE10A are resuspended in 12 mL (50 mM TRIS-HCl-pH8.0, 1 mM MgCl2 and protease inhibitors). The cells are lysed by sonication, and after all cells are lysed, TritonX100 is added according to Novagen protocols.
Reactions are initiated by addition of the cyclic nucleotide substrate, and reactions are allowed to proceed for one hr at room temperature before being terminated through mixing with 15 uL […] yttrium silicate SPA beads (Amersham).
Following a 1 hour incubation the reactions were terminated by addition of 15 uL 8 mg/mL yttrium silicate SPA beads (Amersham). […] were calculated by non linear regression using XLfit (IDBS).

Series [1] concerns PCP induced hyperactivity in mice. The series is described as follows: Phencyclidine (PCP) induced hyperactivity. The series is classed as in vivo, mice (NMRI). Conditions: Mus musculus. The procedure: Male mice (NMRI, Charles River) weighing 20-25 g are used. Eight mice are used in each group receiving the test compound (5 mg/kg) plus PCP (2.3 mg/kg) including the parallel control groups receiving the vehicle of the test compound plus PCP or vehicle injections only. The injection volume is 10 ml/kg. The experiment is made in normal light conditions in an undisturbed room. The test substance is injected per oss 60 min before injection of PCP, which is administered subcutaneous.
Immediately after injection of PCP the mice are placed individually in special designed test cage (20 cm×32 cm). The activity is measured by 5×8 infrared light sources and photocells spaced by 4 cm. The light beams cross the cage 1.8 cm above the bottom of the cage. […]
Motility is recorded in 5 min intervals for a period of 1 hour. The drug effect is calculated on the total counts during the 1 hour behavioral test period in the following manner:
The mean motility induced by vehicle treatment in the absence of PCP is used as baseline. The 100 percent effect of PCP is accordingly calculated to be total motility counts minus baseline. The response in groups receiving test compound is thus determined by the total motility counts minus baseline, expressed in percent of the similar result recorded in the parallel PCP control group. […]

In series [2] the test system is amphetamine induced hyperactivity. Conditions: rats; cited from earlier work.
The subject of series [3] is hyperactivity in rats induced by PCP. Conditions: cited from earlier work.
Another series relates to catalepsy in rats. Conditions: cited from earlier work.

Chain of PDE10A enzyme (Q9Y233 716-1055): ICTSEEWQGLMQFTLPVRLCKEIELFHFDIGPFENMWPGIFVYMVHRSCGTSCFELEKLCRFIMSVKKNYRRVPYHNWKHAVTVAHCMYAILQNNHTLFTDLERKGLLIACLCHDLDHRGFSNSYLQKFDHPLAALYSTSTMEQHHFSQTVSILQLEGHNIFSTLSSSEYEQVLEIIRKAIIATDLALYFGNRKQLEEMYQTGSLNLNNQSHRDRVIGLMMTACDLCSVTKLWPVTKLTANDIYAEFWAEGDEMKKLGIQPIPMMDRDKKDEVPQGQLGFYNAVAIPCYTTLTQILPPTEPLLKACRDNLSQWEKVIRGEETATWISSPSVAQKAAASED

For `Cc1ncc(C)n2nc(C=Cc3cn4c(n3)-c3ccccc3C4)nc12` (racemic) [2-[-2-(5,8-Dimethyl-[1,2,4]triazolo[1,5-a]pyrazin-2-yl)-vinyl]-5H-imidazo[2,1-a]isoindole], at PDE10A enzyme, the IC50 is 4.4 nM.

Consider `[2H]C([2H])([2H])c1ncc(C([2H])([2H])[2H])n2nc(CCc3cn4c(n3)-c3ccccc3C4([2H])[2H])nc12` [2-[2-(5,8-Bis(trideuteromethyl-[1,2,4]triazolo[1,5-a]pyrazin-2-yl)-ethyl]-5,5-dideutero-5H-imidazo[2,1-a]isoindole], for which the IC50 on PDE10A enzyme turned out to be 0.4 nM.

Take `Cc1ncc(C)n2nc(CCc3cn4c(n3)-c3ccccc3CC4)nc12` [2-[2-(5,8-Dimethyl-[1,2,4]triazolo[1,5-a]pyrazin-2-yl)-ethyl]-5,6-dihydro-imidazo[2,1-a]isoquinoline]: at PDE10A enzyme, the IC50 amounted to 0.81 nM.

Take `Cc1ncc(C)n2nc(CCc3cn4c(n3)-c3ncccc3C4)nc12` [2-[2-(5,8-Dimethyl-[1,2,4]triazolo[1,5-a]pyrazin-2-yl)-ethyl]-5H-imidazo[1′,2′:1,2]pyrrolo[3,4-b]pyridine]: the IC50 on PDE10A enzyme was found to be 46 nM.

`Cc1ncc(C)n2nc(CCc3cn4c(n3)-c3cccnc3C4)nc12` [2-[2-(5,8-Dimethyl-[1,2,4]triazolo[1,5-a]pyrazin-2-yl)-ethyl]-5H-imidazo[1′,2′:1,5]pyrrolo[3,4-b]pyridine]: the concentration for half-maximal inhibition (IC50) at PDE10A enzyme amounted to 3.8 nM.

With `Cc1ncc(C)n2nc(CCc3cn4c(n3)-c3cccc(F)c3C4)nc12` [2-[2-(5,8-Dimethyl-[1,2,4]triazolo[1,5-a]pyrazin-2-yl)-ethyl]-6-fluoro-5H-imidazo[2,1-a]isoindole], the 50% inhibitory concentration (IC50) on PDE10A enzyme was 1.2 nM.

Turning to `COc1cccc2c1Cn1cc(CCc3nc4c(C)ncc(C)n4n3)nc1-2` [2-[2-(5,8-Dimethyl-[1,2,4]triazolo[1,5-a]pyrazin-2-yl)-ethyl]-6-methoxy-5H-imidazo[2,1-a]isoindole], the IC50 at PDE10A enzyme stood at 0.44 nM.

Turning to `COc1ccc2c(c1)Cn1cc(CCc3nc4c(C)ncc(C)n4n3)nc1-2` [2-[2-(5,8-Dimethyl-[1,2,4]triazolo[1,5-a]pyrazin-2-yl)-ethyl]-7-methoxy-5H-imidazo[2,1-a]isoindole], the 50% inhibitory concentration (IC50) at PDE10A enzyme stood at 0.29 nM.

Consider `COc1ccc2c(c1)-c1nc(CCc3nc4c(C)ncc(C)n4n3)cn1C2` [2-[2-(5,8-Dimethyl-[1,2,4]triazolo[1,5-a]pyrazin-2-yl)-ethyl]-8-methoxy-5H-imidazo[2,1-a]isoindole], for which the IC50 at PDE10A enzyme came to 6.9 nM.

For `Cc1ncc(C)n2nc(CCc3cn4c(n3)-c3c(F)cccc3C4)nc12` [2-[2-(5,8-Dimethyl-[1,2,4]triazolo[1,5-a]pyrazin-2-yl)-ethyl]-9-fluoro-5H-imidazo[2,1-a]isoindole], the IC50 on PDE10A enzyme was 0.79 nM.

Take `COc1cccc2c1-c1nc(CCc3nc4c(C)ncc(C)n4n3)cn1C2` [2-[2-(5,8-Dimethyl-[1,2,4]triazolo[1,5-a]pyrazin-2-yl)-ethyl]-9-methoxy-5H-imidazo[2,1-a]isoindole]: the IC50 on PDE10A enzyme was 0.44 nM.

In the case of `Cc1ccc(C)n2nc(CCc3cn4c(n3)-c3ccccc3C4)nc12` [2-[2-(5,8-Dimethyl-[1,2,4]triazolo[1,5-a]pyridin-2-yl)-ethyl]-5H-imidazo[2,1-a]isoindole], on PDE10A enzyme, the IC50 came out at 0.69 nM.

Take `Cc1cccc2nc(CCc3cn4c(n3)-c3ccccc3C4)nn12` [2-[2-(5-Methyl-[1,2,4]triazolo[1,5-a]pyridin-2-yl)-ethyl]-5H-imidazo[2,1-a]isoindole]: the 50% inhibitory concentration (IC50) on PDE10A enzyme is 6.1 nM.

Regarding `Cc1cc(C)n2nc(SCc3cn4c(n3)-c3ccccc3C4)nc2n1` [2-[(5,7-dimethyl-[1,2,4]triazolo[1,5-a]pyrimidin-2-yl)sulfanylmethyl]-5H-imidazo[2,1-a]isoindole], the IC50 on PDE10A enzyme was determined as 260 nM.

As for `Cc1c[n+]([O-])c(C)c2nc(CCc3cn4c(n3)-c3ccccc3C4)nn12` [2-[-2-(5,8-Dimethyl-7-oxy-[1,2,4]triazolo[1,5-a]pyrazin-2-yl)-ethyl]-5H-imidazo[2,1-a]isoindole], the IC50 on PDE10A enzyme came to 2.4 nM.

Turning to `Cc1ncc(C)n2nc(CCc3cn4c(n3)-c3ccccc3C4)nc12` [2-[-2-(5,8-Dimethyl-[1,2,4]triazolo[1,5-a]pyrazin-2-yl)-ethyl]-5H-imidazo[2,1-a]isoindole], the concentration for half-maximal inhibition (IC50) at PDE10A enzyme was 0.4 nM. For the same molecule, the inhibition at 5 mg/kg in series [1] (at 5 mg/kg per os, PCP 2.3 mg/kg s.c.) came out at 100%. Also, the median effective dose (ED50) in series [1] (per os 60 min before PCP 2.3 mg/kg s.c., read-out: ED50, inhibition of PCP induced hyperactivity) amounted to 0.2 mg/kg.

As for `Cc1ncc(C)n2nc(CCc3cn4c(n3)-c3ccc(F)cc3C4)nc12` [2-[-2-(5,8-Dimethyl-[1,2,4]triazolo[1,5-a]pyrazin-2-yl)-ethyl]-7-fluoro-5H-imidazo[2,1-a]isoindole], on PDE10A enzyme, the concentration for half-maximal inhibition (IC50) was 0.18 nM.

Regarding `Cc1ncc(C)n2nc(CCc3cn4c(n3)-c3cc(F)ccc3C4)nc12` [2-[-2-(5,8-Dimethyl-[1,2,4]triazolo[1,5-a]pyrazin-2-yl)-ethyl]-8-fluoro-5H-imidazo[2,1-a]isoindole], the IC50 on PDE10A enzyme was 3.1 nM.

Turning to `Cc1ncc(C)n2nc(CCc3cn4c(n3)-c3ccccc3C4C(C)(C)O)nc12` (centres unmarked) [2-{2-[2-(5,8-Dimethyl-[1,2,4]triazolo[1,5-a]pyrazin-2-yl)-ethyl]-5H-imidazo[2,1-a]isoindol-5-yl}-propan-2-ol], the half-maximal inhibitory concentration (IC50) on PDE10A enzyme worked out at 21 nM.

With `COc1ccc(Cc2nccc3cc(OC)c(OC)cc23)cc1OC` [Papaverine, papaverine], the “Reduction of amphetamine induced hyperactivity” value in series [2] was “insignificant”. Moreover, the “Hyperactivity induced by PCP” value in series [3] is “reduced hyperactivity”. Besides, the “Catalepsy on its own” value with catalepsy in rats (alone) is “did not cause catalepsy on its own”. For the same molecule, the “Effect on the cataleptic effect of the D2 receptor antagonist haloperidol” value in the series on catalepsy in rats (together with haloperidol) is reported as “potentiated the cataleptic effect”.

`Cc1cnc(CO)c2nc(CCc3cn4c(n3)-c3ccccc3C4)nn12` [{2-[2-(5H-Imidazo[2,1-a]isoindol-2-yl)-ethyl]-5-methyl-[1,2,4]triazolo[1,5-a]pyrazin-8-yl}-methanol]: the IC50 at PDE10A enzyme was found to be 6.9 nM.
